Test results: patent publication US20200405708A1, “TREATMENT OF HEREDITARY ANGIOEDEMA” (Attune Pharmaceuticals, Inc., priority 2018, published 2020)
pEC50, pIC50: −log10 of the molar value. Values joined by “and” are separate entries in the source; they are usually repeats but may differ in a detail not shown here. Equal entries are not always repeated. “Also recorded” adds a separate entry of the source. One block for each molecule: values may come before it.

How the values were obtained:
[1] = single-ascending-dose and food effect pharmacokinetics in healthy male participants; type: in vivo; parameters: Mean C24: unit not given here; conditions: human; for AUCinf, geometric mean (geometric % CV) / Cmax, geometric mean (geometric % CV): n = 6; for Mean Cmax: in ng/mL; for Mean AUCinf: in ng·h/mL
Protocol: (§1) A randomized, double-blind, placebo-controlled single ascending dose and crossover food effect study
(§2) 48 healthy male participants (6 active:2 placebo in each of the 6 dose cohorts) received a single daily dose of Compound A 50 mg, 100 mg, 150 mg, 200 mg, 400 mg, or 800 mg. Subjects in the 100 mg dose cohort received first dose of Compound A under fasted condition in period 1 and after a 7-day washout, a second dose 30 minutes after the start of a high fat, high caloric meal in period 2. Serial blood draws were collected to calculate PK parameters, including area under the curve (AUC) from time zero to infinity (AUC), maximum concentration (Cmax), time of maximum concentration (Tmax), and half-life. Safety measures including treatment-emergent adverse events (TEAEs) were assessed.

[2] = bioavailability after single oral administration, rats; type: in vivo, rat; conditions: single oral 30 mg/kg
[3] = test system: tissue kallikrein 5, tissue kallikrein 7, tissue kallikrein 14, plasmin, Factor Xa, Factor VIIa, thrombin, tissue plasminogen activator (tPA); test: selectivity by biochemical inhibition versus other serine proteases
Protocol: (§3) Selectivity was evaluated by biochemical inhibition on plasma kallikrein relative to other serine proteases, including tissue kallikrein 5, plasmin, Factor Xa, Factor VIIa, thrombin, and tissue plasminogen activator (tPA). Potency was evaluated by biochemical inhibition and contact activation assays in human plasma. Pharmacokinetic exposure was evaluated in monkeys after a single oral administration of Compound A at 15 mg/kg. The no-observed-adverse-effect-level (NOAEL) was evaluated in 14-day non-GLP rat and monkey toxicology studies; animals were given daily doses of 100 or 300 mg/kg.

plasma kallikrein [4] = target: T1, plasma kallikrein (Homo sapiens, UniProt P03952); test: contact activation assay in human plasma (ex vivo); type: biochemical; parameters: from tissue; host or cells: human plasma
Protocol: as §3
Target sequence in this assay (P03952 391-638 limits assumed): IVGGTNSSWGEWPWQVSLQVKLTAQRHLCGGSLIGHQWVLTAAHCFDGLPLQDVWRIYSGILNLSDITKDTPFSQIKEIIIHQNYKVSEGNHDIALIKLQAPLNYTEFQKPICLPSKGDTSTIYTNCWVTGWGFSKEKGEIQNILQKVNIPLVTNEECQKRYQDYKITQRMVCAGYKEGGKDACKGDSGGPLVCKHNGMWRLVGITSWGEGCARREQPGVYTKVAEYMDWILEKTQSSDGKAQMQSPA
Target sequence in this assay (P03952 20-390 partner limits assumed): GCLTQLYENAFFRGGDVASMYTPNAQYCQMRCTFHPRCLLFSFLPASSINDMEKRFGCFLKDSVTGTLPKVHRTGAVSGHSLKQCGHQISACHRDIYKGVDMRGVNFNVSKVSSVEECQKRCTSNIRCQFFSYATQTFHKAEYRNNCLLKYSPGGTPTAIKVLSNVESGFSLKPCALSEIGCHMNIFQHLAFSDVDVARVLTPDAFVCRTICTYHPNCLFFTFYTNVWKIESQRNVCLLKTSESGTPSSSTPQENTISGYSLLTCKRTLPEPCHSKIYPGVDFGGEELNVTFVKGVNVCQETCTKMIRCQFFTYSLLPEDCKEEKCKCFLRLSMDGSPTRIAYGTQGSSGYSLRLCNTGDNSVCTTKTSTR

[5] = single dose safety pharmacology in rat and monkey; type: in vivo
Text: FIG. 9. A table showing safety pharmacology of Compound A single dose in rat and monkey.

[6] = 28-day repeat dose general toxicity study in rats
[7] = toxicology and genotoxicity studies
Text: FIG. 10. A table showing toxicology/genotoxicity of Compound A.

[8] = 28-day repeat dose general toxicity study in monkeys; type: in vivo, monkey
Protocol: FIG. 8. Graphic representation of 28-day repeat exposure in monkey toxicology study (NOAEL (100 mg/kg/day) at Day 28.

cytochrome P450 (CYP) = test: cytochrome P450 inhibition; type: in vitro ADME
[9] = pharmacokinetic exposure after single oral dose in monkeys; type: in vivo, monkey
Protocol: as §3

[10] = bioavailability after single oral administration, dogs; type: in vivo, dog; conditions: single oral 30 mg/kg
[11] = bioavailability after single oral administration, monkeys; type: in vivo, monkey; conditions: single oral 30 mg/kg
[12] = 14-day non-GLP rat and monkey toxicology studies; type: in vivo; conditions: daily doses of 100 or 300 mg/kg
Protocol: as §3

[13] = metabolism and pharmacokinetics studies of single oral dosing, all species; type: in vivo
Protocol: (§4) FIG. 7. A table showing metabolism and pharmacokinetics results of single oral dosing of Compound A. Metabolism study was conducted with radiolabeled [^14C] Compound A.

[14] = safety and tolerability in single-ascending-dose study, healthy male participants; type: in vivo, human; conditions: all 6 dose cohorts
Protocol: as §1, §2

plasma kallikrein [15] = target: T1, plasma kallikrein; test: biochemical inhibition assay of plasma kallikrein
Protocol: as §3
Target sequence in this assay (P03952 20-638): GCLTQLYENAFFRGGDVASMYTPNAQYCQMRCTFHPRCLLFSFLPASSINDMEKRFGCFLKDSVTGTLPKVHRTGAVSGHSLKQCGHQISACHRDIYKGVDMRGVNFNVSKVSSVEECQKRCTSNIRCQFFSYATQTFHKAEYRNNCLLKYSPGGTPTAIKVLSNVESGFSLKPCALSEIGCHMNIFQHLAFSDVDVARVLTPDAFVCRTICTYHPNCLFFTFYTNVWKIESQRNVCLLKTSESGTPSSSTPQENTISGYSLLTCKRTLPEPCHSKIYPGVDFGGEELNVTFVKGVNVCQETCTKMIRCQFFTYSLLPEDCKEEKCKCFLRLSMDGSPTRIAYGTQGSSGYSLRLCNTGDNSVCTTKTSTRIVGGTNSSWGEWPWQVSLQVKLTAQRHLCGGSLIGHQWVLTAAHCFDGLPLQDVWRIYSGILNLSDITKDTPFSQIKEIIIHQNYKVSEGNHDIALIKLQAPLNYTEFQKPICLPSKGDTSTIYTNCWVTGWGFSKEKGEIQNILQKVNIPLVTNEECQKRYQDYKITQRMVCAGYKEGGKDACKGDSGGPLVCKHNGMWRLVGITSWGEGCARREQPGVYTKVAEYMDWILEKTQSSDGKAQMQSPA

[16] = recovery of radiolabeled [14C] Compound A after single oral dosing in rats; type: in vivo, rat
Protocol: as §4

[17] = 100 mg, fed (high fat, high caloric meal)
[18] = monkeys, single oral dose 15 mg/kg

Molecule: Cc1cc(N)nc(C)c1CNC(=O)c1ccnc(Cc2ccc3ncc(Cl)cc3c2)c1 [Compound A, N-((6-amino-2,4-dimethylpyridin-3-yl)methyl)-2-((3-chloroquinolin-6-yl)methyl)isonicotinamide]
AUCinf % Ratio, fed vs. fasted ([1]; 100 mg): 150.3%
Cmax % Ratio, fed vs. fasted ([1]; 100 mg): 128.5%
AUCinf, geometric mean (geometric % CV) ([1]; 100 mg, fasted): 2573 (135.1) ng*hr/mL
Cmax, geometric mean (geometric % CV) ([1]; 100 mg, fasted): 297 (236.1) ng/mL
AUCinf, geometric mean (geometric % CV) [1, 17]: 3866 (16.1) ng*hr/mL
Cmax, geometric mean (geometric % CV) [1, 17]: 382 (35.8) ng/mL
food effect on PK ([1]; 100 mg, high fat meal vs fasted): Minimal food effect
dose proportionality of AUCinf and Cmax / systemic exposure ([1]; 50-800 mg, fasted): increased proportionally with dose; also recorded: largely proportional to dose
AUCinf, mean (% CV) ([1]; fasted, 50 mg): 2056 (20.5)^ ng*hr/mL
Cmax, mean (% CV) ([1]; fasted, 50 mg): 244 (20.1) ng/mL
Half-Life, mean (% CV) ([1]; fasted, 50 mg): 6.5 (24.1) Hours
Tmax, mean (% CV) ([1]; fasted, 50 mg): 1.8 (43.3) Hours
AUCinf, mean (% CV) ([1]; fasted, 100 mg): 3325 (47.3) ng*hr/mL
Cmax, mean (% CV) ([1]; fasted, 100 mg): 449 (59.3) ng/mL
Half-Life, mean (% CV) ([1]; fasted, 100 mg): 8.0 (33.0) Hours
Tmax, mean (% CV) ([1]; fasted, 100 mg): 2.8 (109.7) Hours
AUCinf, mean (% CV) ([1]; fasted, 150 mg): 8569 (37.9)^ ng*hr/mL
Cmax, mean (% CV) ([1]; fasted, 150 mg): 848 (33.9) ng/mL
Half-Life, mean (% CV) ([1]; fasted, 150 mg): 9.7 (15.4) Hours
Tmax, mean (% CV) ([1]; fasted, 150 mg): 1.9 (19.6) Hours
Half-Life, mean (% CV) ([1]; fasted, 200 mg): 9.8 (11.3) Hours
Tmax, mean (% CV) ([1]; fasted, 200 mg): 2.3 (50.2) Hours
AUCinf, mean (% CV) ([1]; fasted, 200 mg (5 subjects)): 8382 (30.2)^ ng*hr/mL
Cmax, mean (% CV) ([1]; fasted, 200 mg (5 subjects)): 693 (43.0) ng/mL
AUCinf, mean (% CV) ([1]; fasted, 400 mg): 14010 (21.1) ng*hr/mL
Cmax, mean (% CV) ([1]; fasted, 400 mg): 1351 (18.8) ng/mL
Half-Life, mean (% CV) ([1]; fasted, 400 mg): 9.5 (9.9) Hours
Tmax, mean (% CV) ([1]; fasted, 400 mg): 2.4 (57.7) Hours
AUCinf, mean (% CV) ([1]; fasted, 800 mg): 30180 (35.7) ng*hr/mL
Cmax, mean (% CV) ([1]; fasted, 800 mg): 3015 (32.0) ng/mL
Half-Life, mean (% CV) ([1]; fasted, 800 mg): 9.0 (9.9) Hours
Tmax, mean (% CV) ([1]; fasted, 800 mg): 2.9 (33.3) Hours
Mean C24 ([1]; fasted, dose 50): 19.3
Mean Cmax ([1]; fasted, dose 50): 244
Mean AUCinf ([1]; fasted, dose 50): 2056
Mean C24 ([1]; fasted, dose 100): 27.7
Mean Cmax ([1]; fasted, dose 100): 449
Mean AUCinf ([1]; fasted, dose 100): 3325
Mean C24 ([1]; fasted, dose 150): 83.6
Mean Cmax ([1]; fasted, dose 150): 848
Mean AUCinf ([1]; fasted, dose 150): 8569
Mean C24 ([1]; fasted, dose 200): 69.2
Mean Cmax ([1]; fasted, dose 200): 693
Mean AUCinf ([1]; fasted, dose 200): 8382
Mean C24 ([1]; fasted, dose 400): 124.0
Mean Cmax ([1]; fasted, dose 400): 1351
Mean AUCinf ([1]; fasted, dose 400): 14010
Mean C24 ([1]; fasted, dose 800): 274.0
Mean Cmax ([1]; fasted, dose 800): 3015
Mean AUCinf ([1]; fasted, dose 800): 30180
bioavailability [2]: > 40%
selectivity for plasma kallikrein versus other closely related serine proteases [3]: > 2000 fold
fold more potent than C1-INH at inhibiting plasma kallikrein (plasma kallikrein [4]; contact activation assay): 11 fold and ~10 fold
pEC50 (plasma kallikrein [4]; human plasma): 8.09
EC90 (plasma kallikrein [4]; human plasma): 0.0616 µM
mortality or adverse effects on CNS, respiratory, cardiovascular functions [5]: no mortality or adverse effects were observed on central nervous system, respiratory, and cardiovascular functions
findings at high-dose level ([6]; 300 mg/kg/day, not considered adverse): decreases in body weight and food consumption
NOAEL ([6]; 28-day repeat dose): 300 mg/kg/day
genotoxicity or coagulation issues [7]: no genotoxicity or coagulation issues were noted
Cmax exposure relative to EC50 ([8]; NOAEL dose, day 28): > 4500 ×
24-h exposure relative to EC90 ([8]; monkey, in vivo, 100 mg/kg/day): 20 fold
Cmax exposure relative to EC90 ([8]; monkey, in vivo, 100 mg/kg/day): > 600 fold
findings at high-dose level ([8]; monkey, in vivo, 300 mg/kg/day): adverse findings in monkeys reversed upon dose reduction to 150 mg/kg/day dose
NOAEL ([8]; monkeys, 28-day repeat dose): 100 mg/kg/day
inhibition of P450 enzymes (cytochrome P450 (CYP)): does not significantly inhibit P450 enzymes
24-h exposure relative to EC90 ([9]; monkey, in vivo, po, 15 mg/kg): 4 fold
Cmax exposure relative to EC90 ([9]; monkey, in vivo, po, 15 mg/kg): 25 fold
24-hour exposure (C24) relative to EC50 [9, 18]: 30 fold
Cmax exposure relative to EC50 [9, 18]: > 180 ×
fold below the no-observed-adverse-effect-level (NOAEL) ([9]; single dose 15 mg/kg): 20 fold
bioavailability [10]: > 40%
bioavailability [11]: > 40%
no-observed-adverse-effect-level (NOAEL) [12]: 300 mg/kg
bioavailability (in words) [13]: good bioavailability in all species
drug-related TEAEs and serious AEs [14]: No drug-related TEAEs and no serious AEs; also recorded: no moderate or severe TEAEs, no drug-related TEAEs, no SAEs, and no dose limiting toxicity
safety and tolerability (in words) [14]: generally safe and well tolerated
severity of TEAEs [14]: all TEAEs were mild (grade 1)
number of TEAEs observed ([14]; 50-800 mg single dose): 29
pIC50 (plasma kallikrein [15]): 8.57
IC90 (plasma kallikrein [15]): 0.0162 µM
fold more potent than C1-INH at inhibiting plasma kallikrein (plasma kallikrein [15]; biochemical inhibition assay): 9 fold and ~10 fold
recovery of radiolabeled compound (in words) [16]: comprehensive recovery of radiolabeled Compound A
recovery ([16]; intact and bile duct cannulated rats): 99%

pEC50 (plasma kallikrein [4]; human plasma): 7.03
pIC50 (plasma kallikrein [15]): 7.60
IC90 (plasma kallikrein [15]): 0.157 µM
Molecule: C1-INH: C1 inhibitor (C1-esterase inhibitor, serpin), which inhibits the activity of plasma kallikrein; comparator [Compound C1-INH]
